A word on the MIC: it is the lowest concentration that inhibits growth of the organism. Low readings indicate a more susceptible organism, high ones a less susceptible organism.

Results on five compounds are retold here after patent publication US20190255073A1, “ESTERS OF 3-POLYAMINE DERIVATIVES OF BILE ACIDS FOR THE TREATMENT OF INFECTIONS” (VIRBAC, priority 2016, published 2019).

Converted amounts (≈) assume the structure as drawn. Where only a bound is given, the exact number is not on record here.

The test system of one assay is S. aureus ATCC25923. Nature of the assay: MIC determination by microplate dilution, S. aureus human strain. It counts as cell-based, Staphylococcus aureus. Conditions: Staphylococcus aureus, ATCC25923, Gram-positive, Mueller-Hinton medium, 24 h, 37° C. On the procedure:
(§1) 1) Preparation of the Preculture
(§2) A negative control (2 mL of sterile culture medium)
(§3) A positive control (1940 μL of culture medium+40 μL of DMSO+20 μL of bacterial suspension) from a thawed biological strain (the biological strains are stored at −80° C. in glycerol).
(§4) The tubes were incubated at 37° C. for 24 hours at 100 rpm.
(§5) The microorganisms were handled under a type L2 laboratory fume cupboard and, before any handling, a UV cycle was programmed and only sterile material was used. […] The chemical compounds to be tested were prepared in a DMSO/methanol mixture (50/50) at a concentration of 5 mg/mL.
(§6) 2) Preparation of the Microplate for the Determination of the Minimum Inhibitory Concentration (MIC)
(§7) After 24 hours of incubation, a measurement of the optical density was taken using a spectrophotometer at 600 nm, collecting 100 μL of the bacterial suspension diluted in 900 μL of the sterile culture medium. This test required the use of a 96-well plate and the required volume of the microbial suspension to be seeded was calculated for an OD corresponding to a value equal to 0.01 in each well. In this plate, the first line corresponded to the negative control (195 μL of sterile culture medium in each well), the second line to the positive control (seeded culture medium supplemented with 2% of DMSO), the third line was loaded twice with bacterial suspension, 8 μL of test product were placed in each well. Thereafter, a 0.5 cascade dilution was performed from this line.
(§8) The first column served as inhibition control. A sterile filter was then placed on the microplate, allowing the passage of gases but not of contaminants. The microplate was incubated at 37° C. under a humid atmosphere for 24 hours.
(§9) NB: The medium used is Mueller-Hinton (MH) medium for bacteria. All the tests were performed in duplicate.
(§10) 4) Reading of the Results
(§11) After incubation, the filter was replaced with a transparent film, and an OD reading was then taken in an iEMS plate spectrophotometer at 620 nm. Calculation of the minimum inhibitory concentration (MIC) was performed.

A further assay relates to S. aureus (340). As to the kind of experiment: MIC determination by microplate dilution, S. aureus animal strain. Conditions: Staphylococcus aureus, Gram-positive, Mueller-Hinton medium, 24 h, 37° C. The format is cell-based, Staphylococcus aureus. On the procedure:
as §1, §2, §3, §4, §5, §6, §7, §8, §9, §10, §11

A further assay concerns S. intermedius (1051997). As to the kind of experiment: MIC determination by microplate dilution, S. intermedius animal strain. The following applies: Staphylococcus intermedius, Gram-positive, Mueller-Hinton medium, 24 h, 37° C. It counts as cell-based, Staphylococcus intermedius. The protocol:
as §1, §2, §3, §4, §5, §6, §7, §8, §9, §10, §11

The next assay relates to E. faecalis ATCC29212. Nature of the assay: MIC determination by microplate dilution, E. faecalis human strain. The format is cell-based, Enterococcus faecalis. The following applies: Enterococcus faecalis, ATCC29212, Gram-positive, Mueller-Hinton medium, 24 h, 37° C. On the procedure: as §1, §2, §3, §4, §5, §6, §7, §8, §9, §10, §11
A further assay relates to E. coli ATCC28922. As to the kind of experiment: MIC determination by microplate dilution, E. coli human strain. The format is cell-based, Escherichia coli. The following applies: Escherichia coli, ATCC28922, Gram-negative, Mueller-Hinton medium, 24 h, 37° C. The protocol:
as §1, §2, §3, §4, §5, §6, §7, §8, §9, §10, §11

For a further assay, the system named is P. aeruginosa ATCC27853. As to the kind of experiment: MIC determination by microplate dilution, P. aeruginosa human strain. The format is cell-based, Pseudomonas aeruginosa. The following applies: Pseudomonas aeruginosa, ATCC27853, Gram-negative, Mueller-Hinton medium, 24 h, 37° C. The protocol:
as §1, §2, §3, §4, §5, §6, §7, §8, §9, §10, §11

The subject of assay [1] is P. aeruginosa (1051575). As to the kind of experiment: MIC determination by microplate dilution, P. aeruginosa animal strain. The following applies: Pseudomonas aeruginosa, Gram-negative, Mueller-Hinton medium, 24 h, 37° C. It counts as cell-based, Pseudomonas aeruginosa. The protocol:
as §1, §2, §3, §4, §5, §6, §7, §8, §9, §10, §11

The subject of another assay is CHO-K1 cells. As to the kind of experiment: WST1 cytotoxicity test on CHO-K1 cells. The following applies: Cricetulus griseus, CHO-K1, 24 h, read-out: IC50 (μg/mL) CHO. The format is cell-based, Chinese hamster. The protocol:
Test WST1 was used to measure the cytotoxic activity of the products. This is a colorimetric test which makes it possible to measure the viability and the degree of cell proliferation. It is based on cleavage of the colorless tetrazolium salts WST-1 (4-[3-(4-iodophenyl)-2-(4-nitrophenyl)-2H-5-tetrazolio]-1,3-benzene disulfonate) with mitochondrial dehydrogenases to the yellow-colored formazan derivative, which may be quantified by spectrophotometry at 420-480 nm.
The WST1 test was performed on Chinese hamster ovary cells. The CHO-K1 cells (ATCC, USA) are kept in culture on McCoy's 5A medium supplemented with 10% fetal calf serum, 2 mM of L-glutamine and a mixture of penicillin-streptomycin (100 U/ml: 10 μg/mL). The culture is incubated at 37° C. under an atmosphere enriched in CO2 (5%), and subcultured every two days.
The cells are transferred into 96-well plates (25 000 cells/mL) in whole McCoy's 5A medium, and maintained for 24 hours at 37° C. under a humid atmosphere enriched in CO2 (5%). Increasing concentrations of test products are added to the wells in double tests and 8 growth controls containing the cells in the medium alone are included in each series of tests. After 24 hours at 37° C. (5% CO2), the culture medium is removed, the cells are rinsed in phosphate buffer (PBS) and 50 μL of PBS containing 10% of reagent WST1 are added to each well. After 20 minutes of incubation at 37° C., the results are read by spectrophotometry at 450 nm.
The results are expressed in dose-response relationships, modeled by nonlinear regression analysis using the TableCurve software. The 50% inhibitory concentration (IC50) represents the concentration of product that is capable of reducing the cell viability by 50%.
(Tetrazolium assays rely on reduction of a dye to a coloured formazan, in cell work by metabolically active cells.)

Assay [2] relates to P. aeruginosa (1051575). As to the kind of experiment: Potentiation of the doxycycline activity at 2 μg/mL. The following applies: in combination with doxycycline 2 μg/mL; 24 h, 37°. The format is cell-based, Pseudomonas aeruginosa.
In the next assay the test system is E. coli (1956). As to the kind of experiment: MIC determination by microplate dilution, E. coli animal strain. Conditions: Escherichia coli, Gram-negative, Mueller-Hinton medium, 24 h, 37° C. The format is cell-based, Escherichia coli. On the procedure: as §1, §2, §3, §4, §5, §6, §7, §8, §9, §10, §11

In the case of `COC(=O)CC[C@@H](C)[C@H]1CCC2C3CCC4C[C@@H](NCCCNCCCN)CC[C@]4(C)C3C[C@H](O)[C@@]21C` (stereo partly drawn) [(4), methyl 3β-norspermidinodeoxycholate], the MIC in the assay with S. aureus ATCC25923 turned out to be 2 µg/mL (≈ 3.85 µM); in the assay with S. aureus (340), 3 µg/mL (≈ 5.77 µM); against S. intermedius (1051997) it was 1 µg/mL (≈ 1.92 µM); against E. faecalis ATCC29212, 3 µg/mL (≈ 5.77 µM); in the assay with E. coli ATCC28922, 3 µg/mL (≈ 5.77 µM); against P. aeruginosa ATCC27853 it was 3 µg/mL (≈ 5.77 µM). In the assay with P. aeruginosa (1051575) [1], this compound showed an MIC of 3 µg/mL (≈ 5.77 µM). For the same compound, in the assay with CHO-K1 cells, the IC50 is 20 µg/mL (≈ 38.5 µM). For the same compound, in the assay on P. aeruginosa (1051575) [2], the “MIC - P. aeruginosa (1051575): content of compound of formula (I) to restore the doxycycline activity (at 2 μg/mL)” value (from here on “MIC - P. aeruginosa (1051575): content”) stood at 3 µg/mL.
With `CC(C)OC(=O)CC[C@@H](C)[C@H]1CCC2C3C(C[C@H](O)[C@@]21C)[C@@]1(C)CC[C@H](NCCCNCCCN)CC1C[C@H]3O` (stereo partly drawn) [(7), isopropyl 3β-norspermidinocholate], the MIC is 28 µg/mL (≈ 49.7 µM) against S. aureus ATCC25923; 28 µg/mL (≈ 49.7 µM) in the assay with S. intermedius (1051997); 28 µg/mL (≈ 49.7 µM) with E. faecalis ATCC29212; 28 µg/mL (≈ 49.7 µM) against E. coli ATCC28922; above 50 µg/mL against E. coli (1956); 30 µg/mL (≈ 53.2 µM) in the assay with P. aeruginosa ATCC27853. The same compound came in with a minimum inhibitory concentration (MIC) in the assay with P. aeruginosa (1051575) [1] of 30 µg/mL (≈ 53.2 µM). The IC50 in the assay on CHO-K1 cells was determined as 110 µg/mL (≈ 195 µM). In the assay on P. aeruginosa (1051575) [2], the “MIC - P. aeruginosa (1051575): content” value is 4 µg/mL.
For the compound `COC(=O)CC[C@@H](C)[C@H]1CCC2C3C(CC[C@@]21C)[C@@]1(C)CC[C@H](NCCCNCCCN)CC1C[C@H]3O` (stereo partly drawn) [(9), methyl 3β-norspermidinochenodeoxycholate], the MIC against S. aureus ATCC25923 stood at 13 µg/mL (≈ 25 µM); in the assay on S. aureus (340) it was 7 µg/mL (≈ 13.5 µM); with S. intermedius (1051997), 7 µg/mL (≈ 13.5 µM); with E. faecalis ATCC29212 it was 26 µg/mL (≈ 50 µM); with E. coli ATCC28922, 26 µg/mL (≈ 50 µM); against E. coli (1956), 26 µg/mL (≈ 50 µM). In addition, the MIC against P. aeruginosa ATCC27853 and against P. aeruginosa (1051575) [1] was 26 µg/mL (≈ 50 µM) each time. In the assay with CHO-K1 cells, the IC50 is 70 µg/mL (≈ 135 µM). For the same compound, in the assay on P. aeruginosa (1051575) [2], the “MIC - P. aeruginosa (1051575): content” value worked out at 3 µg/mL.
On to `COC(=O)CC[C@@H](C)[C@H]1CCC2C3C(CC[C@@]21C)[C@@]1(C)CC[C@H](NCCCNCCCN)CC1C[C@@H]3O` (stereo partly drawn) [(13), methyl 3β-norspermidinoursodeoxycholate], for which the minimal inhibitory concentration (MIC) is 27 µg/mL (≈ 51.9 µM) against S. aureus ATCC25923; 14 µg/mL (≈ 26.9 µM) in the assay on S. aureus (340); 7 µg/mL (≈ 13.5 µM) against S. intermedius (1051997); 28 µg/mL (≈ 53.9 µM) in the assay with E. faecalis ATCC29212; 55 µg/mL (≈ 106 µM) with E. coli ATCC28922; 55 µg/mL (≈ 106 µM) against E. coli (1956). Besides, the MIC in the assay on P. aeruginosa ATCC27853 was found to be 28 µg/mL (≈ 53.9 µM); in the assay with P. aeruginosa (1051575) [1], 55 µg/mL (≈ 106 µM). Moreover, the IC50 in the assay with CHO-K1 cells came out at 70 µg/mL (≈ 135 µM). Also, the “MIC - P. aeruginosa (1051575): content” value with P. aeruginosa (1051575) [2] was 7 µg/mL.
For the compound `COC(=O)CC[C@@H](C)[C@H]1CCC2C3CCC4C[C@@H](NCCNCCNCCNCCNCCN)CC[C@]4(C)C3C[C@H](O)[C@@]21C` (stereo partly drawn) [(20), methyl 3β-(pentaethylenehexamine)deoxycholate], the MIC against S. aureus ATCC25923 turned out to be 4 µg/mL (≈ 6.44 µM); against S. aureus (340), 6 µg/mL (≈ 9.66 µM); in the assay on S. intermedius (1051997) it was 1 µg/mL (≈ 1.61 µM); in the assay with E. faecalis ATCC29212, 16 µg/mL (≈ 25.8 µM); with E. coli ATCC28922 it was 8 µg/mL (≈ 12.9 µM); against E. coli (1956) it was 14 µg/mL (≈ 22.5 µM). Also, the MIC with P. aeruginosa ATCC27853 and against P. aeruginosa (1051575) [1] was 8 µg/mL (≈ 12.9 µM) in each case. For the same compound, the IC50 with CHO-K1 cells amounted to 90 µg/mL (≈ 145 µM). In addition, the “MIC - P. aeruginosa (1051575): content” value with P. aeruginosa (1051575) [2] stood at 4 µg/mL.
